Source: patent publication US20070292967A1, “Assay for Ligands of the Ecdysone Receptor” (COMMONWEALTH SCIENTIFIC AND INDUSTRIAL RESEARCH OR, priority 2003, published 2007)
Where “and” joins values, the source holds several entries; their conditions need not be identical. Identical values can stand only once.

Key:
BtLBD [1] = molecular target: T1, BtLBD (Bemisia tabaci, UniProt A0A142K0N3); assay: FP competitive inhibition assay with MB4628 tracer, BtLBD; assay type: binding; settings: 6 nM functional BtLBD, 36 nM MB4628, 2 mM CHAPS, Cheng-Prusoff; read-out: FP-derived Ki, BtLBD
Experimental: (§1) For competitive inhibition assays, each well contained standard FP assay buffer containing 36 nM MB4628 and either 5 nM functional MpLBD or 6 nM functional BtLBD. The BtLBD assays, but not the MpLBD ones, were routinely done in the presence of 2 mM CHAPS. The final volume of all assays were 250 μl.
(§2) The inhibitor concentration at this midpoint was deemed to be the IC50 value for the inhibitor. IC50 values were converted to Ki values using the Cheng-Prusoff equation (Cheng & Prusoff, 1973), as follows: Ki=IC50/(1+([MB4628]tot/Kd)) where [MB-4628]tot is the total concentration of MB4628 in the assay, and Kd is the dissociation constant for MB4628 with the relevant receptor under the conditions of the assay. The Kd values for use in this equation were calculated from the basic FP titration curves (FIG. 3) using the knowledge that the receptor concentration at the titration midpoint is the value at which the receptor is half-saturated with MB4628. The Kd is the free MB4628 concentration at this point, and must therefore be: Kd=[MB4628]tot−([receptor]midpoint)/2

MpLBD [2] = molecular target: T2, MpLBD (Myzus persicae, UniProt A3EZJ9); assay: miniaturized automated radioligand-based competition assay, MpLBD; assay type: binding; settings: 1.3 nM [3H]ponasterone A, no CHAPS, read-out: Ki from radioligand-based MpLBD assay
T2 sequence (A3EZJ9 70-308): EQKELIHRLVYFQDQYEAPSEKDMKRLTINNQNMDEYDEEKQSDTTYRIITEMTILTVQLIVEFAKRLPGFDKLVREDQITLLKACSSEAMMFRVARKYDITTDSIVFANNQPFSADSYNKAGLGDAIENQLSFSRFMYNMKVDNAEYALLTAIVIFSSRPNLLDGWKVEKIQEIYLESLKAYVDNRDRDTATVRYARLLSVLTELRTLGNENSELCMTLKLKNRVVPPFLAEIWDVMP
T2 sequence (A3EZK0 32-259 partner): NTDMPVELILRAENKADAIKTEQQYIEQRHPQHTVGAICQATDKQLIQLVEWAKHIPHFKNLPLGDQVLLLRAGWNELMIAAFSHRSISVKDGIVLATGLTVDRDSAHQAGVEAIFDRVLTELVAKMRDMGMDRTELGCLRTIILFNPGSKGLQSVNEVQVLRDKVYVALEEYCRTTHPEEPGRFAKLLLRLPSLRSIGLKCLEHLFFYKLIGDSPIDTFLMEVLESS
Experimental: (§3) Subsequently, a miniaturized and automated version of the radioligand-based competition assay was used with MpLBD and BtLBD to obtain Ki values for the non-radioactive, non-fluorescent ecdysteroids that would later be used to validate the competitive inhibition format of the FP assay. While the concept of the assay was unchanged from that described above, some aspects of its execution were different. […] The mixtures were again allowed to reach equilibrium, but this time for 4 h at room temperature. The MpLBD was then captured on a 96-filter array (Unifilter-96 GF/C, Packard, Cat. No. 6005174) and rinsed using the wash tool and vacuum block of the Biomek 2000. The back of each filter-plate was then manually sealed using a sheet of Packard BackSeal, and 25 μl Packard MicroScint-20 scintillation fluid was dispensed into each well. The top of each plate was sealed with Packard TopSeal-A and the filters were allowed to solvate overnight. […] Since the amount of bound radioactivity was at most 28% of the total present, no additional corrections for ligand depletion were applied.

MpLBD [3] = molecular target: T2, MpLBD; assay: FP competitive inhibition assay with MB4628 tracer, MpLBD; assay type: binding; settings: 5 nM functional MpLBD, 36 nM MB4628, no CHAPS, Cheng-Prusoff; read-out: FP-derived Ki, MpLBD
Experimental: as §1, §2

BtLBD [4] = molecular target: T1, BtLBD; assay: miniaturized automated radioligand-based competition assay, BtLBD; assay type: binding; settings: 1.3 nM [3H]ponasterone A, no CHAPS, read-out: Ki from radioligand-based BtLBD assay
Experimental: as §3

[5] = molecular target: MpLBD, recombinant M. persicae ecdysone receptor (Myzus persicae, UniProt A3EZJ9); assay: manual radioligand-based competitive inhibition assay ([3H]ponasterone A), MpLBD; assay type: binding; settings: for ability to compete with [3H]ponasterone A / bind to MpLBD (in words): radioligand-based assay
Experimental: The ability of inokosterone and fluorescent conjugates thereof to bind to recombinant M. persicae ecdysone receptor was assessed using the conventional radioligand binding assay in a competetive inhibition format (adapted from Koelle et al., 1991).
These procedures were performed manually, as follows. Assays were performed in EcR40 buffer [25 mM Hepes, 40 mM KCl, 10% glycerol, 1 mM sodium EDTA, 3 mM sodium azide] containing 0.5 mg/ml bovine serum albumin (BSA). An extract containing recombinant M. persicae edcdysone receptor, MpLBD, was prepared as described above and diluted in EcR40 buffer containing 0.5 mg/ml BSA to a concentration that generated filter counts around 10 000 cpm when the assay was done in the absence of competing ligands. […] Assays were set up to contain different final concentrations of fluorescent ecdysteroid by including the appropriate volumes of the relevant stock solutions. […] Each incubation was performed in a final volume of […] at room temperature (22° C.) for 90 min, whereupon it was held on ice until the filter adsorption/wash steps could be performed. Three 140 μl aliquots from each completed incubation were applied to glass microfibre filters (GF/C 24 mm diameter, Whatman, Cat. No. 1822024); i.e., every incubation generated three filters, each of which had been wet using 140 μl of the incubation mixture. After exposure to the liquid for 30 sec at room temperature, the wet filter was transferred to a vacuum sinter apparatus (Pyrex Filter Holder, Millipore Corp., Cat. No. XX1002500) and washed rapidly. Washing was done using 2×5 ml of ice-cold EcR40 buffer, intersperced with 3×0.5 ml buffer applied around the circumference of the filter to ensure that its edges were thoroughly rinsed. The damp filter was then transferred to a scintillation vial. When all the filters had been thus processed, 7 ml Packard InstaGel Plus scintillant was added to each scintillation vial. The sealed vials were vortexed and then incubated at room temperature for at least 2 h, during which time the filters became transparent. The vials were then scintillation counted (1 min per filter, tritium program, Packard TriCarb 2100TR scintillation counter). Datapoints were reported as the mean cpm value ±SEM for the three replicate filters arising from each incubation.
The inhibitor concentration at this midpoint was deemed to be the IC50 value for the inhibitor.

LcLBD = assay: FP titration of MB4628 with LcLBD; assay type: binding, Lucilia cuprina; settings: 36 nM MB4628, no CHAPS
Experimental: (§4) The standard FP assay buffer was 50 mM sodium phosphate, 100 mM NaCl, pH 7.4, containing 0.5 mg/ml bovine serum albumin. When required, preparative pipetting steps (such as dilution series) were typically done in conventional V-bottomed 96-well microplates (e.g. V-bottomed polypropylene, Greiner Bio-One, Cat. No. 651201). The assays themselves were set up in opaque black flat-bottomed 96-well plates designed for fluorescence measurements (e.g. Nunc, Cat. No. 237108). The final volume of all assays was 250 μl. The FP plate-reader was a POLARstar Optima (Cat. No. 413-201, BMG Labtechnologies, Offenburg, Germany) with fluorescence polarization optics (installed according to the manufacturer's instructions) and operated by FLUOstar Optima software in Plate Mode (Polarization). Excitation was done at 485 nm (filter 485) and emission was detected at 520 nm (filter 520p). The standard instrument setup involved a 3 sec/3 mm shake for the plate prior to commencing reading; readings used 200 flashes/assay. […]
(§5) A 250 μl sample of 30 nM fluorescein in 50 mM sodium phosphate, 100 mM NaCl, pH 7.4, was known to have a polarization value of 35 mP and was used to calibrate the FP plate-reader. […] Thereafter, at the commencement of each experimental session, the FP plate-reader was adjusted to give a reading of 100 mP for a 250 μl sample of 36 nM MB4628 in standard FP assay buffer. […]

HaLBD = assay: FP titration of MB4628 with HaLBD; assay type: binding, Helicoverpa armigera; settings: 36 nM MB4628, no CHAPS
Experimental: as §4, §5

BtLBD [6] = molecular target: T1, BtLBD; assay: FP titration of MB4628 with BtLBD; assay type: binding; settings: for Kd: 36 nM MB4628
Experimental: (§6) The standard FP assay buffer was 50 mM sodium phosphate, 100 mM NaCl, pH 7.4, containing 0.5 mg/ml bovine serum albumin. When required, preparative pipetting steps (such as dilution series) were typically done in conventional V-bottomed 96-well microplates (e.g. V-bottomed polypropylene, Greiner Bio-One, Cat. No. 651201). The assays themselves were set up in opaque black flat-bottomed 96-well plates designed for fluorescence measurements (e.g. Nunc, Cat. No. 237108). The final volume of all assays was 250 μl. The FP plate-reader was a POLARstar Optima (Cat. No. 413-201, BMG Labtechnologies, Offenburg, Germany) with fluorescence polarization optics (installed according to the manufacturer's instructions) and operated by FLUOstar Optima software in Plate Mode (Polarization). Excitation was done at 485 nm (filter 485) and emission was detected at 520 nm (filter 520p). The standard instrument setup involved a 3 sec/3 mm shake for the plate prior to commencing reading; readings used 200 flashes/assay. Gain values were typically around 3000 for each channel, with a K-factor close or equal to 1.0.
(§7) A 250 μl sample of 30 nM fluorescein in 50 mM sodium phosphate, 100 mM NaCl, pH 7.4, was known to have a polarization value of 35 mP and was used to calibrate the FP plate-reader.
Receptor LBD titrations involved mixing a small volume (e.g. 2.5 μl) of diluted receptor LBD heterodimer stock with a larger volume (e.g. 247.5 μl) of standard FP assay buffer containing 36 nM MB4628. Where indicated, CHAPS was present at a final concentration of 2 mM. Receptor dilutions were typically arranged to cover a wide concentration range, e.g. 0.005-50 nM functional receptor. The assay mixtures were allowed to reach equilibrium, typically by incubating overnight at 4° C. and then equilibrating at room temperature (20° C.) for 2-4 h before reading the mP values. When plotting the data, smooth curves were drawn for the FP titrations using a Flexicurve; these represent a more realistic fit to the data than the linear point-to-point plots shown (for convenience of printing) in FIG. 3.
as §2
The effect of omitting CHAPS from BtLBD competitive inhibition assays was tested directly. Thus, in a BtLBD experiment that departed from standard procedure, 10 nM functional BtLBD was incubated with 36 nM MB4628 and increasing concentrations of non-fluorescent ecdysteroids, but without CHAPS.

MpLBD [7] = molecular target: T2, MpLBD; assay: FP titration of MB4628 with MpLBD; assay type: binding
Experimental: as §6, §7
Receptor LBD titrations involved mixing a small volume (e.g. 2.5 μl) of diluted receptor LBD heterodimer stock with a larger volume (e.g. 247.5 μl) of standard FP assay buffer containing 36 nM MB4628. Where indicated, CHAPS was present at a final concentration of 2 mM. […] The assay mixtures were allowed to reach equilibrium, typically by incubating overnight at 4° C. and then equilibrating at room temperature (20° C.) for 2-4 h before reading the mP values. […]
The inhibitor concentration at this midpoint was deemed to be the IC50 value for the inhibitor. […] The Kd values for use in this equation were calculated from the basic FP titration curves (FIG. 3) using the knowledge that the receptor concentration at the titration midpoint is the value at which the receptor is half-saturated with MB4628. […]

SMILES: CC(C)CC[C@@H](O)[C@](C)(O)[C@H]1CC[C@@]2(O)C3=CC(=O)[C@@H]4C[C@@H](O)[C@@H](O)C[C@]4(C)[C@H]3CC[C@]12C [ponasterone A]
- Ki (BtLBD [1]): 7.4 nM
- Ki (MpLBD [2]): 0.28 nM and ~0.3 nM
- Ki (MpLBD [3]): 1 nM
- Ki (BtLBD [4]): 4.8 nM

SMILES: CC(CC[C@@H](O)C(C)(O)C1CC[C@@]2(O)C3=CC(=O)[C@@H]4C[C@@H](O)[C@@H](O)CC4(C)C3CCC12C)COS(=O)(=O)c1cccc2c(N(C)C)cccc12 (stereo partly shown) [MB4622]
- ability to compete with [3H]ponasterone A / bind to MpLBD (in words) [5]: highly effective ligand

SMILES: CC(CCC(O)C(C)(O)C1CCC2(O)C3=CC(=O)C4CC(O)C(O)CC4(C)C3CCC12C)COC(=S)Nc1ccc2c(c1)C(=O)OC21c2ccc(O)cc2Oc2cc(O)ccc21 (stereo not shown) [MB4628]
- FP titration curve midpoint, LcLBD (LcLBD): 2.5 nM functional receptor
- mPmax, LcLBD (LcLBD): 220 mP
- FP titration curve midpoint, HaLBD (HaLBD): 3.5 nM functional receptor
- mPmax, HaLBD (HaLBD): 230 mP
- Ki [5]: 40 nM
- ability to compete with [3H]ponasterone A / bind to MpLBD (in words) [5]: unimpaired
- FP titration midpoint, BtLBD, 2 mM CHAPS (BtLBD [6]; 36 nM MB4628, 2 mM CHAPS, FIG. 3B experiment): 1.5 nM functional BtLBD
- FP titration midpoint, BtLBD, CHAPS-free (BtLBD [6]; 36 nM MB4628, CHAPS-free, FIG. 3B experiment): 4.5 nM
- mPmax, BtLBD (BtLBD [6]; 36 nM MB4628, no CHAPS): 210-260 mP
- FP titration curve midpoint, BtLBD (BtLBD [6]; 36 nM MB4628, no CHAPS (FIG. 3A)): 1 to 5 nM functional receptor
- Kd (BtLBD [6]; Kd for MB4628, BtLBD without CHAPS, without CHAPS): 34.7 nM
- Kd (BtLBD [6]; Kd for MB4628 from FP titration curve, BtLBD, with 2 mM CHAPS): 35.3 nM
- FP titration curve midpoint, MpLBD (MpLBD [7]; 36 nM MB4628, no CHAPS): 1.1-1.8 nM functional receptor
- maximum mP value (mPmax), MpLBD (MpLBD [7]; 36 nM MB4628, no CHAPS): 335 mP
- Kd (MpLBD [7]; without CHAPS, 36 nM MB4628, read-out: Kd for MB4628 from FP titration curve, MpLBD): 35.3 nM

SMILES: CCN(CC)c1ccc2cc(NC(=O)OCC(C)CCC(O)C(C)(O)C3CCC4(O)C5=CC(=O)C6CC(O)C(O)CC6(C)C5CCC34C)c(=O)oc2c1 (stereo not shown) [MB4592]
- Ki [5]: 20 nM
- ability to compete with [3H]ponasterone A / bind to MpLBD (in words) [5]: unimpaired
